Source: patent US6114373A, “N-acetyl-5,6-dimethoxytryptamine and its free radical scavenging activity” (priority 1998, dated 2000)
Entries after “also recorded” stand apart in the source; their conditions may differ.

Key:
[1] = tested on: KA-induced neurobehavioral activities and death in mice; assay: Neurobehavioral activities and death induced by kainic acid in mice; type: in vivo, mice (male CD2-FI); settings: for Incidence, Seizures / Incidence, Tail arch / Incidence, Tremors / Incidence, Death (death rate): KA 40 mg/kg s.c., compound I or melatonin 5 mg/kg i.p. 10 min before KA, n=15; for Incidence, Seizures / Incidence, Tail arch / Incidence, Tremors: 4 h observation
Experimental: (§1) Kainic acid (KA) was employed to test the in vivo free radical scavenging and antioxidant activities of compound I. KA is an excitatory neurotoxin which destroys neuronal cells by free radical generation (Coyle and Schwarcz, Nature 263: 244-246 1976). Male CD2-FI mice (26-30 g) were chosen as the experimental subject. The mice were housed in windowless room with automatically regulated temperature 22±2° C. and 14 h light/10 h dark cycle. The mice received standard laboratory chow and water ad libitum. The mice were randomized into 4 groups.
Immediately following the injections, neurobehavioral changes were monitored. The observation period extended for 4 hours following the injections. The death rate at 48 hours was recorded. […] By contrast, all of the mice that received KA developed some neurobehavioral changes including arching of tail, tremors and seizures. The death rate in this group was 33%. […] Tremors and seizures decreased from 100% in the KA-treated mice to 40% (p=0.001), respectively,and the death rate was reduced to 20%.

[2] = tested on: pyramidal neurons in the hippocampal CA3 area; assay: Morphological observations of hippocampus of KA-treated mice (light microscopy); type: in vivo, mice (male CD2-FI); settings: seven days following treatment; KA 40 mg/kg s.c. with or without 5 mg/kg compound I or melatonin; hematoxylin and eosin
Experimental: as §1
Seven days following the treatment, representive mice in each of the groups mentioned above were sacrificed. The brains were immersed in normal fixation buffer. The hippocampi and surrounding tissue were dissected from the whole brain, cut and stained with hematoxylin and eosin. The morphological assessment of neuronal damage was determined by using light microscopy. In the brains of control mice no visible neuronal damage was observed. […] The induced neuronal damage was concentrated in the hippocampal CA3 area. The total histological architecture of CA3 area was altered. Virtually all of the pyrimadal neurons in this area were destroyed. The cell membranes appeared to have disintegrated and the nuclei of the cells were condensed and pyknotic. These changes are consistent with cell death. […] Few damaged neurons were observed microcopically in this area in these two groups (FIG. 6).

[3] = Hydroxyl radical scavenging: DMPO-HO. adduct formation (H2O2 + UV) measured by HPLC-EC; type: biochemical
Description: The hydroxyl radical (HO^.cndot.) is the most reactive and cytotoxic species among free radicals. […] Because of its high reactivity, HO^.cndot. once formed either in vitro or in vivo lasts for a very short time (half life about 10^-9 s) and, therefore, HO^.cndot. cannot be measured directly. However, by using a spin trapping agent, in this case 5,5-dimethylpyrroline-N-oxide (DMPO), an adduct (DMPO-HO^.cndot.) is formed between the spin trapping agent and the HO^.cndot.. The adducts have a longer half life and therefore they can be more readily quantified.
When DMPO is incubated in this system the DMPO will traps the HO^.cndot. to form a relatively stable DMPO- HO^.cndot. adduct.
HO^.cndot. +DMPO→DMPO-HO^.cndot.
In the present study, the DMPO-HO^.cndot. adduct was detected by an electro-chemical (EC) detector attached to a high performance liquid chromatography (HPLC) system. […] The applied potential was 1.0 volt and volume of the injected sample was 20 μl.

[4] = tested on: brain lipid proxidation (MDA+4-HDA) in cerebral cortex; assay: Brain oxidative damage test: lipid peroxidation product (LPO; MDA+4-HDA) in cerebral cortex of KA-treated mice; type: in vivo, mice (male CD2-FI); settings: for level of LPO in brain (in words): KA 40 mg/kg s.c. plus compound I or melatonin 5 mg/kg i.p., 48 h, FIG. 5
Experimental: as §1
Forty-eight hours after treatment, 5 mice of each group were sacrificed and the cerebral cortex was excised and immediately placed on dry ice and stored at -80° C. for the lipid prooxidation product (LPO) assay. LPO is the most commonly used index of free radical damage and the assay used to measure the level of LPO is described in a kit avaliable from Calbiochem (LA Jolla, Calif.). LPO was expressed as malondialdehyde (MDA) and 4-hydroxyalkenals (4-HDA)/mg protein. The level of LPO in the cerebral cortex of mice in the control group was 3.47=0.18 nmol/mg protein; in KA injected mice the level of LPO was increased to 4.42=0.11 nmol/mg protein. This increase, when compared to the control mice, was great than 27% (p<0.05).

[5] = tested on: experimental animal life span; settings: Pierpaoli and Regelson, Proc. Natl. Acad. Sci. USA 91: 787-791 1994; up to; cited from earlier work
[6] = background statement; cited from earlier work

COc1cc2[nH]cc(CCNC(C)=O)c2cc1OC [Compound I, N-acetyl-5,6-dimethoxytryptamine]
Incidence, Seizures [1]: 20% | Incidence, Tail arch [1]: 40% | Incidence, Tremors [1]: 40% | Death (in words) ([1]; at 48 hours, KA 40 mg/kg s.c. plus compound I 5 mg/kg i.p.): none of them died | Incidence, Death (death rate) ([1]; at 48 hours): 0% | morphological assessment of neuronal damage, hippocampal CA3 area [2]: No obviously neuronal damage is observed; also recorded: the hippocampal CA3 area of the brain was still intact | suppression of DMPO-HO. adduct formation (in words) ([3]; compared with melatonin, FIG. 3, dose-response, FIG. 4): efficacy is greater than that of melatonin | IC50 ([3]; read-out: IC50 (concentration required to produce 50% inhibition of the DMPO-HO. formation), H2O2 + UV (254 nm), DMPO spin trap, HPLC-EC): 15 µM | level of LPO in brain (in words) [4]: reduced to control levels

C=C(C)[C@H]1CN[C@H](C(=O)O)[C@H]1CC(=O)O [KA]
Incidence, Seizures [1]: 100% | Incidence, Tail arch [1]: 86% | Incidence, Tremors [1]: 100% | Incidence, Death (death rate) ([1]; at 48 hours): 33% | morphological assessment of neuronal damage, hippocampal CA3 area [2]: The morphological architecture of neurons in the hippocampal CA3 region were destroyed; also recorded: the pyramidal neurons of the hippocampus were severely damaged | increase of LPO level compared to control mice ([4]; 48 h after KA 40 mg/kg s.c., p<0.05): > 27%

COc1ccc2[nH]cc(CCNC(C)=O)c2c1 [melatonin]
prolongation of experimental animal life span [5]: up to 27% | Incidence, Seizures [1]: 40% | Incidence, Tail arch [1]: 33% | Incidence, Tremors [1]: 40% | Incidence, Death (death rate) ([1]; at 48 hours): 20% | morphological assessment of neuronal damage, hippocampal CA3 area [2]: No obviously neuronal damage is observed; also recorded: the hippocampal CA3 area of the brain was still intact | biological half life in the blood [6]: 20-40 min | level of LPO in brain (in words) [4]: reduced to control levels
